The test system of one experiment is liver cancer cell lines. The following applies: cited from earlier work.
The target in a further experiment is LXRα (Homo sapiens, UniProt Q13133). Description: LXR HTR-FRET coactivator (b-SRC1) recruitment assay, LXRα. Format: biochemical. The following applies: FRET 12-point dose response, GST-LXR LBD. The source says: (§1) The LXR assay is configured using time-resolved fluorescence resonance energy transfer technology (HTR-FRET) (see Albers et al., J. Biol. Chem. 2006 24; 281(8) 4920-30; Chin J, Assay Drug Dev. Technol. 2003 1(6):777-87).
(§2) In the presence of an agonist, a fusion protein of glutathione S-transferase (GST) and LXR ligand binding domain (GST-LXR LBD) associates with a biotin-labeled nuclear receptor coactivator (b-SRC1). A fluorescent signal is detected in the presence of Eu-labeled anti GST antibodies and streptavidin-labeled allophycocyanin (APC). FRET is made possible by agonist-dependent close interaction of the test proteins.
(§3) Compounds which act as agonists at the LXR ligand binding domain were detected by an increase in time-resolved fluorescence. This LXR-FRET was performed as described by Albers et al. (loc. cit.).
(§4) FRET-active compounds were assayed in a FRET 12-point dose response experiment to determine the EC50—values of the compounds mentioned in the following Table 5.

For the next experiment, the target named is LXRβ (Homo sapiens, UniProt P55055). In words: LXR HTR-FRET coactivator (b-SRC1) recruitment assay, LXRβ. The note with it: FRET 12-point dose response, GST-LXR LBD. The class given is biochemical.
Source text: as §1, §2, §3, §4

The test system of another experiment is lung cancer cells. The following applies: cited from earlier work.
In experiment [1] the test system is female APOE*3-Leiden(E3L).CETP transgenic mice. Description: Pooled lipoprotein profiles (FPLC) in APOE*3Leiden.CETP mice. The class given is in vivo. The following applies: after 5 weeks of treatment, pooled plasma per group.
The test system is the same in experiment [2]. Description: Plasma lipids in APOE*3Leiden.CETP transgenic mice on Western-type diet. The class given is in vivo. The following applies: for Plasma cholesterol: mean ± SD of 10 mice. An excerpt: The aim of the study was to evaluate the effects of extract IMD-XT0022 (see example 1c) on plasma lipids in female APOE*3-Leiden(E3L).CETP transgenic mice (hereinafter referred to as APOE*3Leiden mice). The effects were compared with phytosterol as a positive control.
Forty female APOE*3Leiden mice (from the specific pathogen free breeding stock at TNO-Metabolic Health Research, Leiden, Netherlands), 15-16 weeks of age at the start of the experiment were housed during the experiment in Macrolon® cages (maximally 5 animals per cage) in clean-conventional animal rooms (relative humidity 50-60%, temperature about 21° C., light cycle 7 am to 7 pm). Individual mice were marked by ear-punch holes and supplied with food and acidified tap water ad libitum. Dietary ingredients were provided by Hope Farms (Woerden, the Netherlands): The mice received a semi-synthetic modified Western-type diet (WTD) as described by Nishina et al., J. Lipid. Res. 1990:31:859, containing cholesterol (0.1% w/w, final concentration) and saturated fat (15% w/w cacao butter). The animals were put on a Western-type diet with 0.1% cholesterol for 4 weeks (run-in period). After the run-in period, APOE*3Leiden mice were sub-divided into three groups of 10 mice each and treated during 5 weeks with the following compounds: Control group (vehicle gavage, Western-type diet without diet additions), extract group (Western-type diet without diet additions, 100 mg/kg/d extract IMD-XT0022 via daily gavage) or phytosterol group (vehicle gavage, Western-type diet with addition of 1 wt. % of free phytosterol). One week before first administration of IMD-XT0022 mice were gavaged with vehicle to get used to the procedure. Food intake and body weight were measured weekly during the treatment period (t=0, 1, 2, 3, 4 and 5 weeks). After two and five weeks of treatment blood samples were taken after a 4 hour fasting period. After 3 weeks of treatment vehicle Delios V oil (a medium-chain triglyceride oil obtained from BASF Personal Care and Nutrition GmbH, Düsseldorf, Germany) was replaced by Polyethylengycol-400 (PEG-400, Sigma-Aldrich, Steinheim, Germany) for all groups.
Extract IMD-XT0022 was administered daily by oral gavage between 8.00 and 11.00 am CET. In the phytosterol group phytosterol was administered orally as admix to the WTD (1% w/w free phytosterol). The control group and the phytosterol group received the vehicle accordingly. The gavage volume during the treatment period was 10 ml/kg and was adjusted weekly based on the measured body weight of the respective week.
Plasma cholesterol, triglycerides and HDL cholesterol were measured individually at t=0, 2 and 5 weeks. On group level ALT, AST levels and lipoprotein profiles (at t=0 and 5 weeks) were measured. Feces were collected (per cage) during week 5.
On the mornings of the blood sampling time points of t=weeks 2 and t=5 weeks, gavages were not performed between 8.00-11.00 am, but were performed after the blood sampling. At t=5 weeks, 3 days after the last blood sampling, mice were sacrificed after a 4 hour fasting period (and without giving a gavage on the day of sacrifice) by CO2 suffocation. EDTA-plasma was collected via heart puncture and stored at <−70° C. and several organs were collected.
After a 4 weeks run-in period, 10 low-responder mice were removed from the study. The remaining 30 mice where subdivided into 3 groups of 10 mice each, matched for body weight, plasma cholesterol, triglycerides, HDL-cholesterol and age (t=0) […]

pEC50: −log10 of the molar value.

Sequence of LXRα (Q13133 209-447 limits assumed): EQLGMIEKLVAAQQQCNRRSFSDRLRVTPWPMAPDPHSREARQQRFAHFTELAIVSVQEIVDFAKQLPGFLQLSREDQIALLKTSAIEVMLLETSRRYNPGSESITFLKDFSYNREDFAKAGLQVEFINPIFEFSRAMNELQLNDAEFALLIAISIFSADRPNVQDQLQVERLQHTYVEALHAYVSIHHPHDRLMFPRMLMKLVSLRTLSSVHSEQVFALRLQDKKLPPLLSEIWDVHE
Sequence of LXRα (Q15788 whole entry partner, the tested form may be a part): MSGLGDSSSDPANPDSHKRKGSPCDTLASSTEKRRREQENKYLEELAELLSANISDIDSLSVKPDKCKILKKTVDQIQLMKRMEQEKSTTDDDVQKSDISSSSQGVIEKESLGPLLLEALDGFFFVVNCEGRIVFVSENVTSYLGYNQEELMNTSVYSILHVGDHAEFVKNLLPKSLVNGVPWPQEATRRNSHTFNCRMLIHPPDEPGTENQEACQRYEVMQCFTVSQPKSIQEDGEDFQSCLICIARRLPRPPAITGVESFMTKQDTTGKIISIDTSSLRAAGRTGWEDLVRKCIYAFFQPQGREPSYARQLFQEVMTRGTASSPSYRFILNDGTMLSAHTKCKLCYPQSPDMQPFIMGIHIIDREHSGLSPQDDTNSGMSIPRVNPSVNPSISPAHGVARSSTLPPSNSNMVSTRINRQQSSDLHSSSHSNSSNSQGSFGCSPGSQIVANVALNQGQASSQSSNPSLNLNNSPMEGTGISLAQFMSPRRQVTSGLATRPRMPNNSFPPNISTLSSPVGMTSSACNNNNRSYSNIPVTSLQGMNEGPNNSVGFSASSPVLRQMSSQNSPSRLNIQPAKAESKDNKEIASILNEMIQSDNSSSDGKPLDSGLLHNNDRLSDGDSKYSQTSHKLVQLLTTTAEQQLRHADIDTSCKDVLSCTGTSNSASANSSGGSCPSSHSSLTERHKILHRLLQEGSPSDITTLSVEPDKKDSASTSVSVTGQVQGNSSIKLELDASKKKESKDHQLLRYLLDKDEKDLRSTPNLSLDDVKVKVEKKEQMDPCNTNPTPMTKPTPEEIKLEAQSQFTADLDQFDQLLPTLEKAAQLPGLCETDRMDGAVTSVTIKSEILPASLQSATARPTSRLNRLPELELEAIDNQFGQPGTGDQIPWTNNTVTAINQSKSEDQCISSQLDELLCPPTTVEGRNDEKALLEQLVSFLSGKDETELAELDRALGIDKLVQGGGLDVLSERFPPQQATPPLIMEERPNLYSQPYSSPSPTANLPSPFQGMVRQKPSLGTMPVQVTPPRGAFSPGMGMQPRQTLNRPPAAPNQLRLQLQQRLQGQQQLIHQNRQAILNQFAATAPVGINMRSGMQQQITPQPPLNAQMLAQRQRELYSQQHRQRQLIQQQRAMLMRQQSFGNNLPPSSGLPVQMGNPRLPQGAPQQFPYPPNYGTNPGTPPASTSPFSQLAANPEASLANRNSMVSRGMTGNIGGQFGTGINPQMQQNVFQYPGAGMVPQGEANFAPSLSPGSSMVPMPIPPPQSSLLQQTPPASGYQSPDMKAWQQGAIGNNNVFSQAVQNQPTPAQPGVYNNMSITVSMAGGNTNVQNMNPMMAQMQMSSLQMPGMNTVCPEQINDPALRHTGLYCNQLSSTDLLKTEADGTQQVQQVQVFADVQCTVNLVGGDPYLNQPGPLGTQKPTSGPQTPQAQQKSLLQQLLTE
Sequence of LXRβ (P55055 222-460 limits assumed): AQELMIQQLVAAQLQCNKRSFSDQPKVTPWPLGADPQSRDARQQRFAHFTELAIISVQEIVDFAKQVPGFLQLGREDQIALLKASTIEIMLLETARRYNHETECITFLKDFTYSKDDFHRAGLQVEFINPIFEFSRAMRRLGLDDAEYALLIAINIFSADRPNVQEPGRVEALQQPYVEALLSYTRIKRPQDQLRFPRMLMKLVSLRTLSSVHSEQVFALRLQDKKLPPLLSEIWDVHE
Sequence of LXRβ (Q15788 whole entry partner, the tested form may be a part): as the sequence (Q15788 whole entry partner, the tested form may be a part) above

As usually defined, the pEC50 is the negative decadic logarithm of the EC50, by convention in mol/L. As for `COc1ccc2c(c1C)C=C[C@]1(C)[C@@H]3CC[C@]21O[C@@]1(OC(C)(C)[C@@H](C)[C@H]1O)[C@H]3C` [Compound 1, (2S,3S,3′R,4R,4′S,4aR,10bR)-4,4′,4a,5′-Tetrahydro-8-methoxy-3,4′,4a,5′,5′,7-hexamethyl-spiro[4,10b-ethano-10bH-naphtho[1,2-b]pyran-2(3H),2′(3′H)-furan]-3′-ol], the “Biological activities against liver cancer cell lines” value in the experiment on liver cancer cell lines is on record as “confirmed the biological activities”. For the same compound, the pEC50 at LXRα was 5.85; at LXRβ, 4.60.
In the case of `Cc1c(O)ccc2c1C=C[C@]1(C)[C@@H]3CC[C@]21O[C@@]1(OC(C)(C)[C@@H](C)[C@H]1O)[C@H]3C` [Compound 2, (2S,3S,3′R,4R,4′S,4aR,10bR)-4,4′,4a,5′-tetrahydro-3,4′,4a,5′,5′,7-hexamethyl-spiro[4,10b-ethano-10bH-naphtho[1,2-b]pyran-2(3H),2′(3′H)-furan]-3′,8-diol], the pEC50 is 5.96 at LXRα and 5.26 on LXRβ.
On to `COc1ccc2c(c1CO)C=C[C@]1(C)[C@@H]3CC[C@]21O[C@@]1(OC(C)(C)[C@@H](C)[C@H]1O)[C@H]3C` [Compound 3, (2S,3S,3′R,4R,4′S,4aR,10bR)-4,4′,4a,5′-Tetrahydro-3′-hydroxy-8-methoxy-3,4′,4a,5′,5′-pentamethyl-spiro[4,10b-ethano-10bH-naphtho[1,2-b]pyran-2(3H),2′(3′H)-furan]-7-methanol], for which the figures for the pEC50 on LXRα and on LXRβ were 4.96 and 4.62, respectively.
On the same counts, the results for `C[C@H]1[C@@H](O)[C@]2(OC1(C)C)O[C@]13CC[C@H]([C@@H]2C)[C@@]1(C)CC=C1C3=CC(=O)C2=CC(=O)CC[C@@]21C` [Compound 5, (14β,22S,23R)-14,22:22,25-Diepoxy-23-hydroxy-ergosta-4,7,9-triene-3,6-dione] are 5.12 and 4.62.
Take `C[C@H]1[C@H](O)[C@@]2(OC1(C)C)O[C@]13CC[C@H]([C@@H]2C)[C@@]1(C)C=CC1=C3C=CC2=CC(=O)CC[C@@]21C` [Compound 6, (14β,22S,23S)-14,22:22,25-Diepoxy-23-hydroxy-ergosta-4,6,8,11-tetraen-3-one]: the values for the pEC50 at LXRα and at LXRβ were 5.26 and 4.85, respectively.
On to `COc1ccc2c(c1C)C=C[C@@]1(C)[C@]23CC[C@]1(O)[C@H](C)[C@]1(OC(C)(C)[C@@H](C)[C@H]1O)O3` [Compound 7, (2S,3S,3′R,4R,4′S,4aR,10bR)-4,4′,4a,5′-Tetrahydro-17-hydroxy-8-methoxy-3,4′,4a,5′,5′,7-hexamethyl-spiro[4,10b-ethano-10bH-naphtho[1,2-b]pyran-2(3H),2′(3′H)-furan]-3′-ol], for which the pEC50 is 4.51 at LXRα and 4.47 at LXRβ.
As to `COc1ccc2c(c1C)CC(=O)[C@]1(C)[C@@H]3CC[C@]21O[C@@]1(OC(C)(C)[C@@H](C)[C@H]1O)[C@H]3C` [Compound 8, (2S,3S,3′R,4R,4aR,4′S,10bS)-3′-hydroxy-8-methoxy-3,4a,4′,5′,5′,7-hexamethyl-4,4a,4′,5′-tetrahydro-3H,3′H-spiro[4,10b-ethanobenzo[h]chromene-2,2′-furan]-5(6H)-one], the pEC50 was 4.62 at LXRα and 4.51 on LXRβ.
On the same counts, the results for `C[C@H]1[C@@H](O)[C@@]2(OC1(C)C)O[C@]13CC[C@H]([C@@H]2C)[C@@]1(C)[C@H](O)C=C1C3=CC(=O)C2=CC(=O)CC[C@@]21C` [Compound 9, (1R,2S,2′S,3′R,4aS,4′S,10aR,12R,12aS)-3′,12-dihydroxy-2,4′,5′,5′,10a,12a-hexamethyl-4′,5′,10,10a,12,12a-hexahydro-1H,3′H-spiro[1,4a-ethanonaphtho[1,2-h]chromene-3,2′-furan]-6,8(2H,9H)-dione] are 6.00 and 5.34.
With `COc1ccc2c(c1C)CC[C@]1(C)[C@@H]3CC[C@]21O[C@@]1(OC(C)(C)[C@@H](C)[C@H]1O)[C@H]3C` [Compound 14, (2S,3S,3′R,4R,4aR,4′S,10bR)-8-methoxy-3,4a,4′,5′,5′,7-hexamethyl-4,4a,4′,5,5′,6-hexahydro-3H,3′H-spiro[4,10b-ethanobenzo[h]chromene-2,2′-furan]-3′-ol], the “Biological activities against liver cancer cell lines” value in the experiment on liver cancer cell lines is listed as “confirmed the biological activities”.
`CO[C@@H]1C=C2C3CC[C@H](C(C)/C=C/C(C)C(C)C)[C@@]3(C)CC[C@@H]2[C@@]2(C)CC[C@H](O)C[C@]12O` (stereo partly drawn) [blazein]: the “Apoptosis in lung cancer cells” value in the experiment with lung cancer cells was “induced apoptosis”.
phytosterol: in experiment [1], the “Decrease in the area under the curve of the VLDL peak, cholesterol” value is reported as 25% and the “Decrease in the area under the curve of the VLDL peak, phospholipid” value is 21%. In experiment [2] (after 5 weeks of treatment), the “Decrease of plasma cholesterol as compared to the control group” value is listed as 16% and the “Decrease of plasma triglycerides as compared to the control group” value is 36%. Further, the “Plasma HDL, effect as compared to the control group” value in experiment [2] (mouse, in vivo) is given as “not affected”. In experiment [2] (t = 0 weeks (after run-in, before treatment)), the Plasma cholesterol was determined as 10.9 ± 1.6 mM. The same compound returned a Plasma cholesterol in experiment [2] (t = 2 weeks of treatment, extract 100 mg/kg/d gavage, phytosterol 1 wt.% in diet) of 9.4 ± 1.3 mM. The compound also registered a Plasma cholesterol in experiment [2] (t = 5 weeks of treatment, extract 100 mg/kg/d gavage, phytosterol 1 wt.% in diet) of 8.1 ± 1.8 mM.
